In paper PMC6155239, “Targeting PFKFB3 radiosensitizes cancer cells and suppresses homologous recombination” (Nature Communications, 2018):

Experiments:
[1] = tested on: 97 kinases of the scanEDGE set; assay: DiscoveRx KINOMEscan scanEDGE panel; format: binding; conditions: 2 µM
BJ RAS cells = assay: Clonogenic survival, BJ RAS; format: cell-based; conditions: with and without IR (2 Gy)
Experimental: U2OS cells were transfected with indicated siRNAs and 24 h later exposed to IR (2 Gy) or left untreated and allowed to recover for 4 h. One-hundred U2OS cells were then seeded into 6-well plates and after 10 days colonies were fixed and stained with 4% methylene blue (Sigma Aldrich) in methanol. BJ TERT (500 cells), BJ RAS (200 cells), or U2OS (200 cells) were seeded into 6-well plates 24 h prior to treatment with inhibitors as indicated or vehicle for 24 h and then subjected to IR (2 Gy). The inhibitors were washed out 72 h later and colonies were fixed 4 days (BJ RAS) or 7 days (BJ TERT) later with 4% methylene blue in methanol.

PFKFB3 = PFKFB3 (Homo sapiens, UniProt Q16875); assay: ADP-Glo kinase activity assay, PFKFB3; format: biochemical
Experimental: The kinase activity of the bi-functional enzyme was quantified based on the production of ADP and F-2,6-P2 from ATP by ADP-GloTM Kinase Assay (Promega). The assay was performed in two steps; first, after the kinase reaction, an equal volume of ADP-GloTM Reagent was added to terminate the kinase reaction and deplete the remaining ATP. Second, the Kinase Detection Reagent was added to simultaneously convert ADP to ATP and allow the newly synthesized ATP to be measured using a luciferase/luciferin reaction. The light generated was measured using a luminescence counter (1450 MicroBeta TriLux). The assay was performed in white 384-well plates (OptiPlate, 6007299, PerkinElmer) by consecutive additions of a test compound solution (0.1 µL, serial diluted in DMSO from compound DMSO stock solution and dispensed by acoustic dispensing from UV-star 384-well plate 7360153, VWR), enzyme solution (5 µL) and substrate (fructose-6-phosphate (F6P) and adenosine-5′-triphosphate (ATP)) containing solution (5 µL). […] Four reference dose–response curves, one of them being the QC compound, were included and serial diluted as the test compounds. The final concentrations of all reagents per well were 50 mM Tris–HCl at pH 8.0, 10 mM MgCl2, 5 mM NaPi at pH 8.0, 81.48 nM PFKFB3 or 145 nM PFKFB4, 8 µM ATP, 100 µM F6P (acid treated and then neutralized to remove any contaminating F-2,6-P2[34]), 0.005% Tween-20 and 1 mM dithiothreitol. Enzyme, compounds, and controls were pre-incubated at room temperature for 15 min before the addition of substrate solution. The enzymatic reaction was allowed to proceed for 20 min and the reaction was terminated by the addition of ADP-GloTM Reagent (10 µL) to all wells followed by 40 min incubation at room temperature. […] The inhibitory potency or IC50 values of test compounds on the kinase activity of the enzymes were calculated using a four-parameter model (model 205) in XLfit (IDBS ActivityBase XE Runner).

[2] = tested on: intracellular F-2,6-P2 levels; assay: Intracellular F-2,6-P2 quantification (van Schaftingen assay); format: cell-based; conditions: pancreatic, gastric and colon cancer cell lines
Experimental: Quantification of F-2,6-P2 was performed as described by Van Schaftingen et al.[34]. The assay is based on the potent activation of pyrophosphate-dependent phosphofructokinase-1 (PPi-PFK) from potato tubers by F-2,6-P2. The use of a series of coupled enzymes leads to a consumption of nicotinamide adenine dinucleotide (NADH) that can be followed spectrophotometrically. PANC-1, NUGC-3, SW620, or MIA PaCa-2 cells were seeded at a density of 2.5 × 10^4–3.5 × 10^4 cells per well (96-well, CLS3595, Sigma-Aldrich) and incubated overnight at 37 °C and 5% CO2. […] Plates stored at −20 °C were thawed and the F-2,6-P2 quantification was initiated by transferring 40 µL from each well of the NUNC plate to the corresponding position in a transparent 96-well SpectraPlate-MB (PerkinElmer). In order to ensure that all F-2,6-P2 measured values were within the linear range of response (between 0 and 1 nM final concentration of F-2,6-P2[34]), the same sample volume of an in-house produced F-2,6-P2 standard was included on each plate. […] The coupled enzymatic reaction was allowed to proceed for 45 min at room temperature and the absorbance at 340 nm was continuously measured every 30 s (SpectraMax plate reader, Molecular Devices). The measured absorbance was proportional to the concentration of NADH, which in turn was proportional to the levels of F-2,6-P2 within the linear range. […]

Sequence of PFKFB3 (Q16875 whole entry): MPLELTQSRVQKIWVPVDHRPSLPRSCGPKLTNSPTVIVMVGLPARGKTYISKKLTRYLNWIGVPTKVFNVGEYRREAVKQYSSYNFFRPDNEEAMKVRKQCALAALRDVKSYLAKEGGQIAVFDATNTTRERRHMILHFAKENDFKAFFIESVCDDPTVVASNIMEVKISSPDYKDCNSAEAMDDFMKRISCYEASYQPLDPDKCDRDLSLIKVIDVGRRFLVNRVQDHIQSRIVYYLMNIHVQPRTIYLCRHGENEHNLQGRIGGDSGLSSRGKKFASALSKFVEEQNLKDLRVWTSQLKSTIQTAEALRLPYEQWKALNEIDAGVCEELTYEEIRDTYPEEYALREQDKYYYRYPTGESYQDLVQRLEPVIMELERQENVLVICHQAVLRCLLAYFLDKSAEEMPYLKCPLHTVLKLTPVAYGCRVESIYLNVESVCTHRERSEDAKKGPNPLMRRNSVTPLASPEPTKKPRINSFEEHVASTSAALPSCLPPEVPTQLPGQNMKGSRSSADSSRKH

## O=C(OCCO)c1ccc(NS(=O)(=O)c2cccc(-c3cc(F)ccc3O)c2)cc1O [KAN0438757, 2-Hydroxyethyl-4-{[(5′-fluoro-2′-hydroxybiphenyl-3-yl)sulfonyl]amino}-2-hydroxybenzoate]
[1]
  binding to the 97 targets of the scanEDGE set: no significant binding
BJ RAS cells
  clonogenic survival of BJ RAS (in words): decreased clonogenic survival
PFKFB3; in vitro enzymatic assay
  inhibition of recombinant PFKFB3 kinase activity (in words): largely inactive
[2]
  potency on intracellular F-2,6-P2 levels (in words): sub-µM IC50 values

## O=C(O)c1ccc(NS(=O)(=O)c2cccc(-c3cc(F)ccc3O)c2)cc1O [KAN0438241, 4-{[(5′-Fluoro-2′-hydroxybiphenyl-3-yl)sulfonyl]amino}-2-hydroxybenzoic acid]
[1]
  binding to the 97 targets of the scanEDGE set: no significant binding
PFKFB3; ADP-GLO assay
  IC50: 190 nM
[2]
  potency on intracellular F-2,6-P2 levels (in words): low µM potency
